# Measured values reported in publication PMC10780244, “Antileishmanial Effect of 1,5- and 1,8-Substituted Fused Naphthyridines” (Molecules, 2023).
# Experiments:
# [1] = tested on: axenic iRFP-L. infantum amastigotes from bone marrow cells; assay: Axenic amastigote viability assay (iRFP fluorescence, first screening); assay type: cell-based; conditions: Leishmania infantum, Bone marrow cell, cut-off 25 µM, 72 h, read-out: Axenic Amastigotes (concentration with inhibition)
# Experimental: (§1) The 1,5- and 1,8-fused naphthyridine derivatives were evaluated as antileishmanial agents in assays using two forms of L. infantum amastigotes: axenic amastigotes recovered from bone marrow cells of infected BALB/c mice and intramacrophagic amastigotes obtained from splenic explants of the same subjects. The L. infantum strain used is a genetically modified strain previously engineered by our group to constitutively express the infrared protein iRFP from Rhodopseudomonas palustris bacteriophytochrome (iRFP L. infantum). This strain allows monitoring the viability of both forms of the parasite by quantifying the fluorescence emitted at 700 nm by the iRFP protein produced by living amastigotes.
# (§2) Amastigotes obtained from mouse bone marrow cells were used to perform a first screening with the complete series of fused 1,5- and 1,8-naphthyridines. […] The toxicity of these selected compounds was assessed in non-infected splenic cells and the cytotoxic concentration (CC50) value obtained was used to calculate the selective index (SI). The oral tolerability of these same compounds was tested by calculating the viability of murine intestinal organoids exposed to two concentrations (50 and 25 µM).
# To obtain iRFP-L. infantum axenic amastigotes, femur and tibia were carefully cut at both ends, and marrow cells were removed by passing PBS through the medullary cavity with a 29G needle. The bone marrow cell suspension was filtered through a 100 µm cell strainer and centrifuged at 3500× g for 10 min at room temperature. After centrifugation, cells were resuspended in amastigote culture medium: 15 mM KCl; 136 mM KH2PO4; 10 mM K2HPO4·3H2O; 0.5 mM MgSO4. 7H2O; 24 mM NaHCO3; 22 mM glucose; 1 mM glutamine, 1xRPMI 1640 vitamin mix (Sigma-Aldrich, Merck, Darmstadt, Germany), 10 mM folic acid, 100 mM adenosine, 1xRPMI amino acid mix (Sigma-Aldrich, Merck, Darmstadt, Germany), 5 mg/mL hemin, antibiotic cocktail, 25 mM MES and 10% FBS, and incubated at 37 °C.
# To test the antileishmanial effect of naphthyridines on axenic amastigotes, 40 μL of a suspension containing 3 × 10^4 iRFP-L. infantum parasites per well were incubated with another 40 μL of the drugs dilutions in amastigote culture medium with 7.5% FBS. Incubations were performed in 384-well black microtiter plates with an optical bottom at 37 °C and 5% CO2 for 72 h. Solutions of 0.1% (v/v) DMSO and 10 μM AMB were used as negative and positive controls, respectively. The assays were performed by triplicate.
# (§3) The viability of axenic and intramacrophage amastigotes was calculated measuring the fluorescence emitted at 700 nm by the iRFP protein from live parasites and recorded by an Odyssey infrared imaging system (Li-Cor, NE, USA). The fluorescence emitted by the negative control wells was considered 100% viability, whereas the fluorescence emitted by the positive control wells, was adjusted to 0% viability.
# [2] = Cytotoxicity in uninfected murine splenic cells (alamarBlue); assay type: cell-based, mouse; conditions: mouse; uninfected splenic cells, 72 h, alamarBlue; read-out: Mouse Splenic Macrophages CC50
# Experimental: Amastigotes obtained from mouse bone marrow cells were used to perform a first screening with the complete series of fused 1,5- and 1,8-naphthyridines. […] The toxicity of these selected compounds was assessed in non-infected splenic cells and the cytotoxic concentration (CC50) value obtained was used to calculate the selective index (SI). The oral tolerability of these same compounds was tested by calculating the viability of murine intestinal organoids exposed to two concentrations (50 and 25 µM). In order to assess the in vitro safety of the naphthyridines, cytotoxicity assays were carried out in ex vivo splenic explants from uninfected mice, which were prepared as previously described to obtain intramacrophagic amastigotes. Cells were seeded at a density of 1 × 10^6 cells per well in 96-well plates containing the prediluted compounds and incubated at 37 °C and 5% CO2 during 72 h. AlamarBlue assay (Invitrogen, Fisher Scientific, Waltham, MA, USA) was used to estimate cell viability following manufacturer’s recommendations. The assays were performed by triplicate. Absorbance of viable cells vs. compound concentrations were fitted by nonlinear analysis using the Sigma Plot 10.1 statistical package to calculate the cytotoxic concentration 50 (CC50) values. Selectivity index (SI) was calculated as the ratio between CC50 and the EC50 values of intramacrophagic amastigotes.
# [3] = tested on: intramacrophagic iRFP-L. infantum amastigotes from murine spleens; assay: Ex vivo intramacrophagic amastigote viability assay (iRFP fluorescence); assay type: cell-based, Leishmania infantum; conditions: for EC50: Leishmania infantum, ex vivo murine splenic explants, 72 h, read-out: Intracellular Amastigotes EC50; for SI: ratio CC50 (splenic macrophages) / EC50 (intramacrophagic amastigotes); for antileishmanial activity against Leishmania amastigotes (in words): summary in discussion
# Experimental: as §1, §2
# Intramacrophagic amastigotes were obtained by cutting spleens into small pieces that were incubated for 25 min with 0.5 mL of collagenase D (2 mg/mL) (Merck, Darmstadt, Germany) dissolved in 4.5 mL buffer (10 mM HEPES, pH 7.4, 150 mM NaCl, 5 mM KCl, 1 mM MgCl2 and 1.8 mM CaCl2). The cell suspension was filtered through a 100 µm cell strainer. After erythrocyte lysis (150 mM NH4Cl, 1 mM KHCO3, 0.1 mM EDTA), splenocytes were centrifuged three times at 500× g for 7 min at 4 °C, with PBS washes between each centrifugation. The splenocyte suspension containing intramacrophagic amastigotes was resuspended in RPMI medium (Gibco, Fisher Scientific, Waltham, MA, USA) supplemented with 20% FBS, 1 mM sodium pyruvate, 24 mM NaHCO3, 2 mM L-glutamine, 1× RPMI vitamins, 25 mM HEPES and antibiotic cocktail.
# For the ex vivo intramacrophagic amastigote assay, 40 μL of one-half or one-third serial dilutions of each diluted in supplemented RPMI medium, were added to black 384-well optical-bottom black plates containing 40 μL of murine splenocytes obtained as described above. Positive controls (containing 10 μM of AMB) and negative controls (containing 0.1% v/v DMSO) were included. The plates were incubated at 37 °C and 5% CO2, for a maximum period of 72 h and the assays were performed by triplicate.
# as §3
# Fluorescence emitted by intramacrophage amastigotes were plotted against the drug concentration using the nonlinear fit analysis provided by the Sigma Plot 10.1 statistical package to obtain EC50 values.
compound,measurement,setting,value
O=C1Oc2ccccc2C2Nc3ccc(Br)nc3[C@@H](c3ccccc3)C12 (some centres unmarked) [Compound 6b],minimal effective concentration,[1],< 25 µM
same,CC50 at 72 h,[2],55.7 ± 6.42 µM
same,EC50,[3],12.9 ± 0.82 µM
same,SI,[3],4.3
Cc1ccc(S(=O)(=O)N2CC3C(Nc4ncccc4C3c3ccccc3)c3ccccc32)cc1 (centres unmarked) [Compound 14a],minimal effective concentration,[1],< 25 µM
same,CC50 at 72 h,[2],27.2 ± 1.55 µM
same,EC50,[3],9.34 ± 0.77 µM
same,SI,[3],2.9
same,antileishmanial activity against Leishmania amastigotes (in words),[3],significant antileishmanial activity
Fc1ccc2c(c1)C1Nc3ncccc3[C@@H](c3ccccc3)C1CO2 (some centres unmarked) [Compound 10b],minimal effective concentration,[1],< 25 µM
same,CC50 at 72 h,[2],50.7 ± 0.99 µM
same,EC50,[3],7.57 ± 0.44 µM
same,SI,[3],6.7
c1ccc(-c2c3c(nc4ncccc24)-c2ccccc2OC3)cc1 [Compound 11a],minimal effective concentration,[1],< 25 µM
same,CC50 at 72 h,[2],> 100 µM
same,EC50,[3],7.7 ± 0.29 µM
COc1ccc2c(n1)[C@@H](c1ccccc1)C1CN(S(=O)(=O)c3ccc(C)cc3)c3ccccc3C1N2 (some centres unmarked) [Compound 8c],minimal effective concentration,[1],< 25 µM
same,CC50 at 72 h,[2],> 100 µM
same,EC50,[3],4.93 ± 0.35 µM
Cc1ccc(S(=O)(=O)N2CC3C(Nc4cccnc4[C@H]3c3ccccc3)c3ccccc32)cc1 (some centres unmarked) [Compound 8a],minimal effective concentration,[1],< 25 µM
same,CC50 at 72 h,[2],45 ± 3.91 µM
same,EC50,[3],5.3 ± 0.71 µM
same,SI,[3],8.5
O=c1oc2ccccc2c2nc3ncc(Br)cc3c(-c3ccccc3)c12 [Compound 13b],minimal effective concentration,[1],< 25 µM
same,CC50 at 72 h,[2],> 50 µM
same,EC50,[3],7.53 ± 0.97 µM
same,SI,[3],>6.6
Cc1ccc(S(=O)(=O)N2Cc3c(nc4ncc(Br)cc4c3-c3ccccc3)-c3ccccc32)cc1 [Compound 15b],minimal effective concentration,[1],< 25 µM
same,CC50 at 72 h,[2],24.6 ± 3.59 µM
same,EC50,[3],6.16 ± 0.54 µM
same,SI,[3],4.0
same,antileishmanial activity against Leishmania amastigotes (in words),[3],significant antileishmanial activity
O=c1oc2ccccc2c2nc3ncccc3c(-c3ccccc3)c12 [Compound 13a],minimal effective concentration,[1],< 25 µM
same,CC50 at 72 h,[2],34.6 ± 1.79 µM
same,EC50,[3],10.6 ± 1.21 µM
same,SI,[3],3.3
same,antileishmanial activity against Leishmania amastigotes (in words),[3],significant antileishmanial activity
Cc1ccc(S(=O)(=O)N2CC3C(Nc4ccc(Br)nc4[C@H]3c3ccccc3)c3ccccc32)cc1 (some centres unmarked) [Compound 8d],minimal effective concentration,[1],< 25 µM
same,CC50 at 72 h,[2],> 50 µM
same,EC50,[3],34.4 ± 9.7 µM
COc1ccc2nc3c(c(-c4ccccc4)c2n1)c(=O)oc1ccccc13 [Compound 7c],minimal effective concentration,[1],< 25 µM
same,CC50 at 72 h,[2],97.7 ± 1.77 µM
same,EC50,[3],37 ± 2.87 µM
same,SI,[3],2.6
